Measured values taken from US20060069132A1, “Azolecarboxamide herbicides” (priority 2004, published 2006).
Like-named read-outs stand apart in the source and are kept apart here.

What was measured:
[1] = system: corn; assay: Test B pre-/postemergence herbicide test; format: in vivo, Zea mays; conditions: Zea mays
Outline: (§1)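 Herbicidal effect was judged by eye on a 0–100 scale after plants stood 13 to 15 days in the greenhouse following pre- or postemergence treatment with surfactant-containing formulations.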

[2] = system: lambsquarters; assay: Test B pre-/postemergence herbicide test; format: in vivo, Chenopodium album; conditions: Chenopodium album, 336 h; for pest or weed control at 125 g/ha: 125 g ai/ha
Outline: as §1

[3] = system: giant foxtail; assay: Test B pre-/postemergence herbicide test; format: in vivo, Setaria faberi; conditions: Setaria faberi, 336 h; for pest or weed control at 500 g/ha: 500 g ai/ha; for pest or weed control at 125 g/ha: 125 g ai/ha
Outline: as §1

[4] = system: rice; assay: Test B flooded paddy test; format: in vivo, Oryza sativa; conditions: Oryza sativa, 336 h, 1000 g ai/ha, visual rating, scale 0 to 100 (0 no effect, 100 complete control), 13 to 15 days, read-out: Rice plant response rating
Outline: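 Treated at 2-leaf (paddy) or 1–4-leaf, 2–18 cm (postemergence); greenhouse 13–15 d; visual score vs control, 0 none to 100 complete control; dash = not tested.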

[5] = system: small flower umbrella sedge; assay: Test B flooded paddy test; format: in vivo, Cyperus difformis; conditions: Cyperus difformis, 336 h, 1000 g ai/ha, visual rating, scale 0 to 100 (0 no effect, 100 complete control), 13 to 15 days, read-out: Sedge, Umbrella plant response rating
Outline: (§2)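 Greenhouse test; postemergence application to plants at 1–4 leaves (2–18 cm); paddy species at 2 leaves; evaluated visually vs controls at 13–15 days; scale 0–100 (100 = complete control).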

[6] = system: blackgrass; assay: Test B postemergence herbicide test; format: in vivo, Alopecurus myosuroides; conditions: scale 0 (no effect) to 100 (complete control)
Outline: as §2

[7] = system: morningglory; assay: Test B pre-/postemergence herbicide test; format: in vivo, Ipomoea coccinea; conditions: Ipomoea, 336 h; for pest or weed control at 125 g/ha: 125 g ai/ha
Outline: (§3)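 Greenhouse pot assay with simultaneous preemergence (treated seed) and postemergence (2–18 cm seedlings) applications of surfactant-containing, non-phytotoxic solvent formulations. Response scored visually 13–15 days later on a 0–100 scale, 100 meaning complete control.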

[8] = system: pigweed; assay: Test B pre-/postemergence herbicide test; format: in vivo, Amaranthus retroflexus; conditions: Amaranthus retroflexus, 336 h; for pest or weed control at 125 g/ha: 125 g ai/ha
Outline: as §1

[9] = system: cocklebur; assay: Test B pre-/postemergence herbicide test; format: in vivo, Xanthium strumarium; conditions: Xanthium strumarium; for pest or weed control at 500 g/ha: 500 g ai/ha; for pest or weed control at 125 g/ha: 125 g ai/ha
Outline: as §3

[10] = system: wheat; assay: Test B postemergence herbicide test; format: in vivo, Triticum aestivum; conditions: scale 0 (no effect) to 100 (complete control)
Outline: as §2

[11] = system: velvetleaf; assay: Test B pre-/postemergence herbicide test; format: in vivo, Abutilon theophrasti; conditions: Abutilon theophrasti, 336 h; for pest or weed control at 125 g/ha: 125 g ai/ha
Outline: as §1

[12] = system: barnyardgrass; assay: Test B pre-/postemergence herbicide test; format: in vivo, Echinochloa crus-galli; conditions: Echinochloa crus-galli; for pest or weed control at 500 g/ha: 500 g ai/ha; for pest or weed control at 125 g/ha: 125 g ai/ha
Outline: as §3

[13] = system: barnyardgrass; assay: Test B flooded paddy test; format: in vivo, Echinochloa crus-galli; conditions: Echinochloa crus-galli, 336 h, 1000 g ai/ha, visual rating, scale 0 to 100 (0 no effect, 100 complete control), 13 to 15 days, read-out: Barnyardgrass plant response rating
Outline: as §2

[14] = system: wild oat; assay: Test B postemergence herbicide test; format: in vivo, Avena fatua; conditions: scale 0 (no effect) to 100 (complete control)
Outline: as §2

[15] = system: ducksalad; assay: Test B flooded paddy test; format: in vivo, Heteranthera limosa; conditions: Heteranthera limosa, 336 h, 1000 g ai/ha, visual rating, scale 0 to 100 (0 no effect, 100 complete control), 13 to 15 days, read-out: Ducksalad plant response rating
Outline: as §2

[16] = Postemergence, 500 g ai/ha, visual rating after 13 to 15 days

CCOC(=O)c1cccc(NC(=O)c2cc(C(C)(C)C)nn2CC)c1 [Compound 80, ethyl 3-[[[3-(1,1-dimethylethyl)-1-ethyl-1H-pyrazol-5-yl]carbonyl]-amino]benzoate]
Corn plant response rating (crop injury, 0 = no effect, 100 = complete kill) at 500 g/ha ([1]; post-emergence, Postemergence, 500 g ai/ha, visual rating after 13 to 15 days, scale 0 (no effect) to 100 (complete control)): 50%
plant injury at 125 g/ha ([1]; post-emergence, postemergence, 125 g ai/ha, visual rating, scale 0 (no effect) to 100 (complete control), read-out: Corn plant response rating): 20%
plant injury at 500 g/ha ([1]; pre-emergence, Preemergence, 500 g ai/ha, scale 0 to 100, read-out: Corn plant response rating): 10%
Corn plant response rating (crop injury, 0 = no effect, 100 = complete kill) at 125 g/ha ([1]; pre-emergence, preemergence, 125 g ai/ha, 0 to 100 scale, 0 is no effect, 100 is complete control): 0%
pest or weed control at 500 g/ha ([2]; post-emergence, Postemergence, 500 g ai/ha, visual rating after 13 to 15 days, scale 0 (no effect) to 100 (complete control), read-out: Plant response rating, Lambsquarters): 80%
pest or weed control at 125 g/ha ([2]; post-emergence, postemergence, visual rating, scale 0 (no effect) to 100 (complete control), read-out: Lambsquarters plant response rating): 70%
pest or weed control at 125 g/ha ([2]; pre-emergence, preemergence, 0 to 100 scale, 0 is no effect, 100 is complete control, read-out: Plant response rating, Lambsquarters): 0%
pest or weed control at 500 g/ha ([3]; post-emergence, Postemergence, visual rating after 13 to 15 days, scale 0 (no effect) to 100 (complete control), read-out: Plant response rating, Foxtail, Giant): 90%
pest or weed control at 125 g/ha ([3]; post-emergence, postemergence, visual rating, scale 0 (no effect) to 100 (complete control), read-out: Foxtail, Giant plant response rating): 50%
pest or weed control at 500 g/ha ([3]; pre-emergence, Preemergence, scale 0 to 100, read-out: Foxtail, Giant plant response rating): 70%
pest or weed control at 125 g/ha ([3]; pre-emergence, preemergence, 0 to 100 scale, 0 is no effect, 100 is complete control, read-out: Plant response rating, Foxtail, Giant): 20%
plant injury at 1000 g/ha [4]: 60%
pest or weed control at 1000 g/ha [5]: 80%
pest or weed control at 125 g/ha ([6]; Alopecurus myosuroides, post-emergence, 336 h, postemergence, 125 g ai/ha, visual rating, read-out: Blackgrass plant response rating): 20%
Plant response rating, Blackgrass [6, 16]: 40
pest or weed control at 500 g/ha ([7]; post-emergence, Postemergence, 500 g ai/ha, visual rating after 13 to 15 days, scale 0 (no effect) to 100 (complete control), read-out: Plant response rating, Morningglory): 100%
pest or weed control at 125 g/ha ([7]; post-emergence, postemergence, visual rating, scale 0 (no effect) to 100 (complete control), read-out: Morningglory plant response rating): 100%
pest or weed control at 125 g/ha ([7]; pre-emergence, preemergence, 0 to 100 scale, 0 is no effect, 100 is complete control, read-out: Plant response rating, Morningglory): 0%
pest or weed control at 500 g/ha ([8]; post-emergence, Postemergence, 500 g ai/ha, visual rating after 13 to 15 days, scale 0 (no effect) to 100 (complete control), read-out: Plant response rating, Pigweed): 100%
pest or weed control at 125 g/ha ([8]; post-emergence, postemergence, visual rating, scale 0 (no effect) to 100 (complete control), read-out: Pigweed plant response rating): 100%
pest or weed control at 125 g/ha ([8]; pre-emergence, preemergence, 0 to 100 scale, 0 is no effect, 100 is complete control, read-out: Plant response rating, Pigweed): 0%
pest or weed control at 500 g/ha ([9]; post-emergence, Postemergence, visual rating after 13 to 15 days, scale 0 (no effect) to 100 (complete control), read-out: Plant response rating, Cocklebur): 100%
pest or weed control at 125 g/ha ([9]; post-emergence, postemergence, visual rating, scale 0 (no effect) to 100 (complete control), read-out: Cocklebur plant response rating): 70%
pest or weed control at 500 g/ha ([9]; pre-emergence, Preemergence, scale 0 to 100, read-out: Cocklebur plant response rating): 0%
pest or weed control at 125 g/ha ([9]; pre-emergence, preemergence, 0 to 100 scale, 0 is no effect, 100 is complete control, read-out: Plant response rating, Cocklebur): 0%
Plant response rating, Wheat [10, 16]: 30
plant injury at 125 g/ha ([10]; Triticum aestivum, post-emergence, 336 h, postemergence, 125 g ai/ha, visual rating, read-out: Wheat plant response rating): 20%
pest or weed control at 500 g/ha ([11]; post-emergence, Postemergence, 500 g ai/ha, visual rating after 13 to 15 days, scale 0 (no effect) to 100 (complete control), read-out: Plant response rating, Velvetleaf): 100%
pest or weed control at 125 g/ha ([11]; post-emergence, postemergence, visual rating, scale 0 (no effect) to 100 (complete control), read-out: Velvetleaf plant response rating): 90%
pest or weed control at 125 g/ha ([11]; pre-emergence, preemergence, 0 to 100 scale, 0 is no effect, 100 is complete control, read-out: Plant response rating, Velvetleaf): 20%
pest or weed control at 500 g/ha ([12]; post-emergence, Postemergence, visual rating after 13 to 15 days, scale 0 (no effect) to 100 (complete control), read-out: Plant response rating, Barnyardgrass): 90%
pest or weed control at 125 g/ha ([12]; post-emergence, postemergence, visual rating, scale 0 (no effect) to 100 (complete control), read-out: Barnyardgrass plant response rating): 80%
pest or weed control at 500 g/ha ([12]; pre-emergence, Preemergence, scale 0 to 100, read-out: Barnyardgrass plant response rating): 20%
pest or weed control at 125 g/ha ([12]; pre-emergence, preemergence, 0 to 100 scale, 0 is no effect, 100 is complete control, read-out: Plant response rating, Barnyardgrass): 0%
pest or weed control at 1000 g/ha [13]: 80%
pest or weed control at 125 g/ha ([14]; Avena fatua, post-emergence, 336 h, postemergence, 125 g ai/ha, visual rating, read-out: Oat, Wild plant response rating): 30%
Plant response rating, Oat, Wild [14, 16]: 50
pest or weed control at 1000 g/ha [15]: 90%
